In patent publication US6124269A, “2-Halo-6-O-substituted ketolide derivatives” (priority 1998, dated 2000):
Values after ≈ are worked out from the molar mass of the structure shown.

Legend:
Type in all cases: cell-based
[1] = system: Staphylococcus aureus ATCC 6538P; assay: In vitro agar dilution MIC, organism code AA; details: Table 1B, unit assumed
Protocol: (§1) Representative compounds of the present invention were assayed in vitro for antibacterial activity as follows: Twelve petri dishes containing successive aqueous dilutions of the test compound mixed with 10 mL of sterilized Brain Heart Infusion (BHI) agar (Difco 0418-01-5) were prepared. Each plate was inoculated with 1:100 (or 1:10 for slow-growing strains, such as Micrococcus and Streptococcus) dilutions of up to 32 different microorganisms, using a Steers replicator block. The inoculated plates were incubated at 35-37° C. for 20 to 24 hours. In addition, a control plate, using BHI agar containing no test compound, was prepared and incubated at the beginning and end of each test.
(§2) An additional plate containing a compound having known susceptibility patterns for the organisms being tested and belonging to the same antibiotic class as the test compound was also prepared and incubated as a further control, as well as to provide test-to-test comparability.
(§3) After incubation, each plate was visually inspected. The minimum inhibitory concentration (MIC) was defined as the lowest concentration of drug yielding no growth, a slight haze, or sparsely isolated colonies on the inoculum spot as compared to the growth control.

[2] = system: Staphylococcus aureus A5177; assay: In vitro agar dilution MIC, organism code BB; details: Table 1B, in µg/mL (unit assumed)
Protocol: as §1, §2, §3

[3] = system: Staphylococcus aureus A-5278; assay: In vitro agar dilution MIC, organism code CC; details: Table 1B, unit assumed
Protocol: as §1, §2, §3

[4] = system: Staphylococcus aureus CMX 642A; assay: In vitro agar dilution MIC, organism code DD; details: Table 1B, unit assumed
Protocol: as §1, §2, §3

[5] = system: Staphylococcus aureus NCTC10649M; assay: In vitro agar dilution MIC, organism code EE; details: Table 1B, unit assumed
Protocol: as §1, §2, §3

[6] = system: Staphylococcus aureus CMX 553; assay: In vitro agar dilution MIC, organism code FF; details: Table 1B, unit assumed
Protocol: as §1, §2, §3

[7] = system: Staphylococcus aureus 1775; assay: In vitro agar dilution MIC, organism code GG; details: Table 1B, unit assumed
Protocol: as §1, §2, §3

[8] = system: Staphylococcus epidermidis 3519; assay: In vitro agar dilution MIC, organism code HH; details: Table 1B, in µg/mL (unit assumed)
Protocol: as §1, §2, §3

[9] = system: Enterococcus faecium ATCC 8043; assay: In vitro agar dilution MIC, organism code II; details: Table 1B, unit assumed
Protocol: as §1, §2, §3

[10] = system: Streptococcus bovis A-5169; assay: In vitro agar dilution MIC, organism code JJ; details: Table 1B, unit assumed
Protocol: as §1, §2, §3

[11] = system: Streptococcus agalactiae CMX 508; assay: In vitro agar dilution MIC, organism code KK; details: Table 1B, unit assumed
Protocol: as §1, §2, §3

[12] = system: Streptococcus pyogenes EES61; assay: In vitro agar dilution MIC, organism code LL; details: unit assumed
Protocol: as §1, §2, §3

[13] = system: Streptococcus pyogenes 930; assay: In vitro agar dilution MIC, organism code MM; details: unit assumed
Protocol: as §1, §2, §3

[14] = system: Streptococcus pyogenes PIU 2548; assay: In vitro agar dilution MIC, organism code NN; details: unit assumed
Protocol: as §1, §2, §3

[15] = system: Micrococcus luteus ATCC 9341; assay: In vitro agar dilution MIC, organism code OO; details: Table 1B, unit assumed
Protocol: as §1, §2, §3

[16] = system: Micrococcus luteus ATCC 4698; assay: In vitro agar dilution MIC, organism code PP; details: Table 1B, in µg/mL (unit assumed)
Protocol: as §1, §2, §3

Escherichia coli JUHL = assay: In vitro agar dilution MIC, organism code QQ; details: Table 1B, in µg/mL (unit assumed)
Protocol: as §1, §2, §3

Escherichia coli SS = assay: In vitro agar dilution MIC, organism code RR; details: Table 1B, in µg/mL (unit assumed)
Protocol: as §1, §2, §3

Escherichia coli DC-2 = assay: In vitro agar dilution MIC, organism code SS; details: Table 1B, unit assumed
Protocol: as §1, §2, §3

Candida albicans CCH 442 = assay: In vitro agar dilution MIC, organism code TT; details: Table 1B, unit assumed
Protocol: as §1, §2, §3

[17] = system: Mycobacterium smegmatis ATCC 114; assay: In vitro agar dilution MIC, organism code UU; details: Table 1B, in µg/mL (unit assumed)
Protocol: as §1, §2, §3

[18] = system: Nocardia asteroides ATCC 9970; assay: In vitro agar dilution MIC, organism code VV; details: Table 1B, in µg/mL (unit assumed)
Protocol: as §1
as §2, with “comparability. Erythromycin A was used for this purpose.” for “comparability.”
as §3

[19] = system: Haemophilis influenzae DILL AMP R; assay: In vitro agar dilution MIC, organism code WW; details: unit assumed
Protocol: as §1, §2, §3

[20] = system: Streptococcus pneumoniae ATCC 6303; assay: In vitro agar dilution MIC, organism code XX; details: unit assumed
Protocol: as §1, §2, §3

[21] = system: Streptococcus pneumoniae GYR 1171; assay: In vitro agar dilution MIC, organism code YY; details: Table 1B, unit assumed
Protocol: as §1, §2, §3

[22] = system: Streptococcus pneumoniae 5979; assay: In vitro agar dilution MIC, organism code ZZ; details: unit assumed
Protocol: as §1, §2, §3

[23] = system: Streptococcus pneumoniae 5649; assay: In vitro agar dilution MIC, organism code ZZA; details: unit assumed
Protocol: as §1, §2, §3

C=CCO[C@]1(C)C[C@@H](C)C(=O)[C@H](C)[C@H]2NC(=O)O[C@]2(C)[C@@H](CC)OC(=O)[C@@](C)(F)C(=O)[C@H](C)[C@H]1O[C@@H]1O[C@H](C)C[C@H](N(C)C)[C@H]1O [Example 4]
MIC [1]: 0.78 µg/mL (≈ 1.19 µM) | MIC [2]: 0.78 | MIC [3]: > 100 µg/mL | MIC [4]: 0.78 µg/mL (≈ 1.19 µM) | MIC [5]: 0.78 µg/mL (≈ 1.19 µM) | MIC [6]: 0.78 µg/mL (≈ 1.19 µM) | MIC [7]: > 100 µg/mL | MIC [8]: 0.78 | MIC [9]: 0.2 µg/mL (≈ 0.305 µM) | MIC [10]: 0.2 µg/mL (≈ 0.305 µM) | MIC [11]: 0.2 µg/mL (≈ 0.305 µM) | MIC ([12]; Table 1B): 0.2 µg/mL (≈ 0.305 µM) | MIC ([13]; Table 1B): > 100 µg/mL | MIC ([14]; Table 1B): 0.39 µg/mL (≈ 0.594 µM) | MIC [15]: 0.39 µg/mL (≈ 0.594 µM) | MIC [16]: 0.78 | MIC (Escherichia coli JUHL): > 100 | MIC (Escherichia coli SS): 0.78 | MIC (Escherichia coli DC-2): > 100 µg/mL | MIC (Candida albicans CCH 442): > 100 µg/mL | MIC [17]: 6.2 | MIC [18]: 0.39 | MIC ([19]; Table 1B): 8 µg/mL (≈ 12.2 µM) | MIC ([20]; Table 1B): 0.06 µg/mL (≈ 0.0914 µM) | MIC [21]: 0.03 µg/mL (≈ 0.0457 µM) | MIC ([22]; Table 1B): > 128 µg/mL | MIC ([23]; Table 1B): 0.25 µg/mL (≈ 0.381 µM)

CC[C@H]1OC(=O)[C@@](C)(F)C(=O)[C@H](C)[C@@H](O[C@@H]2O[C@H](C)C[C@H](N(C)C)[C@H]2O)[C@](C)(OC/C=C/c2cnc3ccccc3c2)C[C@@H](C)C(=O)[C@H](C)[C@H]2NC(=O)O[C@@]21C [Example 5]
MIC [1]: 0.05 µg/mL (≈ 0.0638 µM) | MIC [2]: 0.05 | MIC [3]: > 100 µg/mL | MIC [4]: 0.05 µg/mL (≈ 0.0638 µM) | MIC [5]: 0.05 µg/mL (≈ 0.0638 µM) | MIC [6]: 0.05 µg/mL (≈ 0.0638 µM) | MIC [7]: > 100 µg/mL | MIC [8]: 0.05 | MIC [9]: 0.02 µg/mL (≈ 0.0255 µM) | MIC [10]: 0.005 µg/mL (≈ 0.00638 µM) | MIC [11]: 0.01 µg/mL (≈ 0.0128 µM) | MIC ([12]; Table 1B): 0.01 µg/mL (≈ 0.0128 µM) | MIC ([12]; Table 1D): 0.03 µg/mL (≈ 0.0383 µM) | MIC ([13]; Table 1B): 0.2 µg/mL (≈ 0.255 µM) | MIC ([13]; Table 1D): 0.25 µg/mL (≈ 0.319 µM) | MIC ([14]; Table 1B): 0.05 µg/mL (≈ 0.0638 µM) | MIC ([14]; Table 1D): 0.25 µg/mL (≈ 0.319 µM) | MIC [15]: 0.01 µg/mL (≈ 0.0128 µM) | MIC [16]: 0.1 | MIC (Escherichia coli JUHL): 25 | MIC (Escherichia coli SS): 0.2 | MIC (Escherichia coli DC-2): 25 µg/mL (≈ 31.9 µM) | MIC (Candida albicans CCH 442): 12.5 µg/mL (≈ 15.9 µM) | MIC [17]: 0.2 | MIC [18]: 0.005 | MIC ([19]; Table 1B): 1 µg/mL (≈ 1.28 µM) | MIC ([19]; Table 1D): 1 µg/mL (≈ 1.28 µM) | MIC ([20]; Table 1B): 0.03 µg/mL (≈ 0.0383 µM) | MIC ([20]; Table 1D): 0.03 µg/mL (≈ 0.0383 µM) | MIC [21]: 0.03 µg/mL (≈ 0.0383 µM) | MIC ([22]; Table 1B): 1 µg/mL (≈ 1.28 µM) | MIC ([22]; Table 1D): 1 µg/mL (≈ 1.28 µM) | MIC ([23]; Table 1B): 0.25 µg/mL (≈ 0.319 µM) | MIC ([23]; Table 1D): 0.25 µg/mL (≈ 0.319 µM)

CC[C@H]1OC(=O)[C@@](C)(F)C(=O)[C@H](C)[C@@H](O[C@@H]2O[C@H](C)C[C@H](N(C)C)[C@H]2O)[C@](C)(OC/C=C/c2cnc3ccc([N+](=O)[O-])cc3c2)C[C@@H](C)C(=O)[C@H](C)[C@H]2NC(=O)O[C@@]21C [Example 6]
MIC [1]: 0.05 µg/mL (≈ 0.0603 µM) | MIC [2]: 0.05 | MIC [3]: 100 µg/mL (≈ 121 µM) | MIC [4]: 0.05 µg/mL (≈ 0.0603 µM) | MIC [5]: 0.1 µg/mL (≈ 0.121 µM) | MIC [6]: 0.05 µg/mL (≈ 0.0603 µM) | MIC [7]: 100 µg/mL (≈ 121 µM) | MIC [8]: 0.05 | MIC [9]: 0.05 µg/mL (≈ 0.0603 µM) | MIC [10]: 0.01 µg/mL (≈ 0.0121 µM) | MIC [11]: 0.02 µg/mL (≈ 0.0241 µM) | MIC ([12]; Table 1B): ≤ 0.005 µg/mL | MIC ([13]; Table 1B): 0.39 µg/mL (≈ 0.47 µM) | MIC ([14]; Table 1B): 0.05 µg/mL (≈ 0.0603 µM) | MIC [15]: 0.01 µg/mL (≈ 0.0121 µM) | MIC [16]: 0.05 | MIC (Escherichia coli JUHL): 25 | MIC (Escherichia coli SS): 0.05 | MIC (Escherichia coli DC-2): 25 µg/mL (≈ 30.2 µM) | MIC (Candida albicans CCH 442): 100 µg/mL (≈ 121 µM) | MIC [17]: 0.1 | MIC [18]: 0.02 | MIC ([19]; Table 1B): 2 µg/mL (≈ 2.41 µM) | MIC ([20]; Table 1B): ≤ 0.004 µg/mL | MIC [21]: ≤ 0.004 µg/mL | MIC ([22]; Table 1B): 1 µg/mL (≈ 1.21 µM) | MIC ([23]; Table 1B): 0.125 µg/mL (≈ 0.151 µM)
